Reference: US20240307409A1, “ARGININE METHYLTRANSFERASE INHIBITOR AND USE THEREOF” (Cytosinlab Therapeutics Co., Ltd., priority 2021, published 2024)

Legend:
Toledo cells = test: Toledo cell proliferation inhibition assay; type: cell-based; conditions: Homo sapiens, Toledo, 144 h; six-day assay, CellTiter-Glo
Method in brief: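 Toledo cells seeded at 2000 cells/well in RPMI 1640 + 10% FBS and incubated with compound for six days at 37° C, 5% CO2. Viability was then read by CellTiter-Glo luminescence after 30 min orbital mixing.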

MMA in RKO cells = test: RKO In Cell Western assay (MMA primary antibody); type: cell-based; conditions: Homo sapiens, 72 hours, read-out: RKO ICW_EC30
Method in brief: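 After 72 h compound exposure at 37 °C, RKO cells (2,000/well) were fixed, permeabilized and probed with MMA primary antibody plus HRP secondary, TMB read at OD450. Signal normalized to Janus green OD595; activation % derived from OD450/OD595 relative to DMSO and 10 μM positive controls, 8-point threefold series from 5 μM.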

PRMT8 = PRMT8 (Homo sapiens, UniProt Q9NR22); test: PRMT panel selectivity test, PRMT8; type: biochemical
Protocol: [The procedure below names another target; the source says it served here with some conditions changed.] This experiment was assayed in a buffer prepared on the same day consisting of 10 mMTirs-HCl (pH=8.0), […] and 1 mM DTT. The compounds were prepared to the highest inhibitor concentration ultimately required in the 100× reaction with 100% DMSO and then transferred to one well of a 384-well Echo plate (Echo-eligible 384-well polypropylene microplates 2.0, transparent, flat-bottomed) and sequentially diluted in the next well with a 3-fold dilution of 100% DMSO, and so on, with a total of 10 concentrations based on Precision. 100% DMSO was added to two empty wells as control well without compound and control well without enzyme in the same 384-well Echo plate. 100 nL of compound was transferred from each well of the 384-well Echo plate to a 384-well assay plate (OptiPlate (384-well, white)) via the Echo 550 liquid processor. For wells with compounds and control well without compound, a mixture containing PRMT1 enzyme (5 uL) was added to the 384-well assay plate. For control well without enzyme, a mixture containing test buffer (5 uL) was added instead. The compounds were allowed to incubate with PRMT3 for 15 minutes at room temperature, and then a mixture containing cold SAM and peptide (5 uL) was added to start the reaction (final volume=10 uL). The final concentrations of the components were as follows: 0.1 nM for PRMT3, 15 uM for SAM, 0.05 uM for peptide, and 1% DMSO. After 60 min of incubation at room temperature, the reaction was terminated by the addition of donor and acceptor magnetic beads (15 uL) with a final concentration of 10 ug/mL diluted with AlphaLISA Epigenetics Buffer. The 384-well assay plate was incubated at room temperature for 60 min and the relative fluorescence units (RFU) were nextly determined using a multi-mode plate reader in Alpha mode (Ex680/Em615).
Curve fitting: the raw data were copied from Reader and the inhibition values were calculated in Excel by equation (1). […]

PRMT8, sequence (Q9NR22 whole entry): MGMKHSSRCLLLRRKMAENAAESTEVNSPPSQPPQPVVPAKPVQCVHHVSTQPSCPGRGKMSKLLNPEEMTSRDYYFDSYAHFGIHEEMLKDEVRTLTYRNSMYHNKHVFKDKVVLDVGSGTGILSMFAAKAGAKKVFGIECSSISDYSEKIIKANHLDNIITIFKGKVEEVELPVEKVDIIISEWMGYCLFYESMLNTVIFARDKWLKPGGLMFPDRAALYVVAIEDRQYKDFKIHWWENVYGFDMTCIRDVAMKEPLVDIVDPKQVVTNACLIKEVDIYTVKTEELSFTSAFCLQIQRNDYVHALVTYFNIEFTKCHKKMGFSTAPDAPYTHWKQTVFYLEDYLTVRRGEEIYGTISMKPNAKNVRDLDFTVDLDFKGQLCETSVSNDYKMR

SMILES	IC50 (Toledo cells) [µM]	EC30 (MMA in RKO cells) [µM]	IC50 (PRMT8) [µM]
CCOCC1(COCC)CCC(c2cccnc2CN(C)CCNC)CC1 [P207]	< 1	< 0.25	< 0.05
CNCCN(C)Cc1ncccc1N1CCc2ccccc2CC1 [P118]	< 1	< 0.25	< 0.05
CNCCN(C)Cc1ccccc1C1CCN(c2ccccc2)CC1 [P023]	< 1	< 0.25	< 0.05
